{"source": "patent US6630583B1", "about": "“Antibiotics and methods of using the same” (priority 1998, dated 2003)", "key": {"HK mutant": {"tested_on": "HK mutant", "test": "Phenotypes of the mutants: lysis by penicillin, vancomycin, DOC", "format": "cell-based, S. pneumoniae", "procedure": "(§1) Construction of mutations: Insertion duplication mutagenesis was carried out using PCR to generate gene fragments for homologous recombination proximal to the amino terminus of OrfW1, HK or RR as follows:\n(§2) Phenotypes of the mutants: The mutants were assessed for various physiological functions characteristic of pneumococci. This included lysis by penicillin, vancomycin, and the detergent deoxycholate (DOC). Other capabilities tested included ability to undergo natural DNA transformation (Transform) and expression of the LytA protein as assessed by Western blot."}, "Orf W1 mutant": {"tested_on": "Orf W1 mutant", "test": "Phenotypes of the mutants: lysis by penicillin, vancomycin, DOC", "format": "cell-based, S. pneumoniae", "procedure": "as §1, §2"}, "RR mutant": {"tested_on": "RR mutant", "test": "Phenotypes of the mutants: lysis by penicillin, vancomycin, DOC", "format": "cell-based, S. pneumoniae", "procedure": "as §1, §2"}, "[1]": {"tested_on": "loss of function mutants of the ABC transporter and RR/HK", "test": "Tolerance of loss of function mutants", "format": "cell-based, S. pneumoniae", "conditions": "growth inhibitory concentrations", "description": "As described in Example 6, using insertion duplication mutagenesis, loss of function mutations were obtained in each of the 3 open reading frames of the ABC transporter and each of the two parts of the RR/HK. […] These parallel phenotypes further implicate these topographically close genes in a common pathway.\nVancomycin is the only antibiotic that maintains efficacy against many strains of highly antibiotic resistant bacteria, such as staphylococci, enterococci and pneumococci. Escape from antibiotic activity of vancomycin has been detected in rare staphylococci and enterococci but not in pneumococci as yet. […] Infect. Dis. J., 12:196-200 (1993); Marton et al., J. Infect. Dis., 163:542-8 (1991); and Bradley et al., Pediatr. Infect. Dis., 14:1037-1041 (1995)]. […] If they created a phenotype which was corrected by exogenous peptide, they may participate in the biological activity of the peptide. For instance, the ABC transporter may transport the peptide and the HK may serve as an extracellular receptor for the peptide which then changes the behavior of the bacteria (i.e., killing) via a RR signal."}, "clinical isolate A144": {"tested_on": "clinical isolate A144", "test": "Cell viability (CFU/ml) one hour after addition", "format": "cell-based, pneumococcus", "conditions": "10×MIC of penicillin, 1×MIC of vancomycin or 0.4 mM peptide", "description": "Tolerance to penicillin occurs in bacteria that fail to trigger autolysins in response to the drug. […] This is a mechanism of resistance to these drugs and is a serious emerging medical problem. […] However, one pneumococcal strain that fails to lyse and dies slowly in response to both penicillin and vancomycin is the clinical isolate A144. This combination of traits makes A144 recalcitrant to therapy. FIG. 8 compares the activity of penicillin, vancomycin, and the peptide having the amino acid sequence of SEQ ID NO:2 against a classical sensitive strain, R6, and the tolerant strain A144. […] In contrast, strain A144 loses only 0.5 logs of viability in the same time period for all three therapies. […] Thereafter the bacteria grew more slowly than untreated controls."}, "clinical isolate F79": {"tested_on": "clinical isolate F79", "test": "Lysis of tolerant clinical isolate", "format": "cell-based, pneumococcus", "conditions": "10×MIC of penicillin and/or 0.5 mM peptide", "procedure": "FIGS. 11A-11B show the effects of 10×MIC of penicillin and/or 0.5 mM of the peptide having the amino acid sequence of SEQ ID NO:2 on the lysis of clinical isolate F79 cells (FIG. 11A) and HK mutant VanS cells (FIG. 11B).\nF79 is a natural isolate of pneumococcus with mutations in the HK and the ABC transporter genes as determined by SSCP (see Example 11)."}, "parent strain R6": {"tested_on": "parent strain R6", "test": "Effect of vancomycin treatment on viability", "format": "cell-based, S. pneumoniae", "conditions": "R6, vancomycin 10×MIC (5 μg/ml), over 4 hours", "experimental": "Bacterial viability was followed for six hours.\n(§3) The effect of penicillin and vancomycin treatment on the viability was determined by exposing 10 ml cultures in the early exponential phase of growth (OD620nm=0.3, corresponding 5×10^7 cfu/ml) to ten times the MIC of benzylpenicillin or vancomycin, respectively. After various times of exposure, 100 μl portions were removed, serially diluted in C+Y and in the case of penicillin supplemented with 100 units of penicillinase (Sigma), and plated on tryptic-soy agar supplemented with 3% sheep blood (v/v)."}, "[2]": {"tested_on": "strain RNET01 (vncS over-expressed)", "test": "Effect of vancomycin treatment on viability", "format": "cell-based, S. pneumoniae", "conditions": "RNET01, vancomycin 10×MIC (5 μg/ml), over 4 hours", "experimental": "as §3\nTo address the question if the kinase/phosphatase VncS was indeed directly linked to the major pneumococcal autolytic pathway, VncS was overexpressed from a plasmid in a vncS deficient knockout mutant. […] To establish a possible correlation between over-expression of the vncS gene and cell death RNET01 and R6 were exposed to vancomycin."}, "vexp3 mutant": {"tested_on": "vexp3 mutant", "test": "Effect of antibiotic treatment on viability", "format": "cell-based, S. pneumoniae", "conditions": "10×MIC of vancomycin, in 4 hours", "experimental": "Bacterial viability was followed for six hours. (Parent strain, R6 (□), vex3 mutant (◯), and vncS mutant (⋄)).\nas §3"}, "[3]": {"tested_on": "leucine deprived R6 cells", "test": "Stringent response: lysis after leucine deprivation", "format": "cell-based, S. pneumoniae", "conditions": "10×MIC of penicillin or vancomycin, 0.2 mM P27, or combination", "procedure": "P27 and the stringent response mechanism: The stringent response is believed to prevent the death pathway. To clarify the relationship of the stringent response to P27 activity, protein synthesis of R6 was inhibited by leucine deprivation and the effect of P27 was monitored (FIG. 19). […] The minimum concentration of penicillin required to cause penicillin dependent autolysis was equal to its MIC ([…])."}, "mutant SPSJ01": {"tested_on": "mutant SPSJ01", "test": "Screen of library of loss of function mutants for antibiotic tolerance", "format": "cell-based, pneumococcus", "description": "To detect genes that are part of the trigger pathway of the pneumococcal autolysin a library of loss of function mutants has been created, which was screened for antibiotic tolerance [Pearce et al., Mol. Microbiol., 9:1037-1050 (1993)]. […] It is reasonable to assume that this two component system represents the start of the pneumococcal autolytic trigger pathway, functioning as a relay station reacting to cell density signals or the binding of antibiotics to penicillin binding proteins. Similar to the enterococcal histidine kinase VanSB, the pneumococcal VncS works most likely as a kinase/phosphatase (see Example 1, above)."}}}
{"smiles": "CN[C@H](CC(C)C)C(=O)N[C@H]1C(=O)N[C@@H](CC(N)=O)C(=O)N[C@H]2C(=O)N[C@H]3C(=O)N[C@H](C(=O)N[C@H](C(=O)O)c4cc(O)cc(O)c4-c4cc3ccc4O)[C@H](O)c3ccc(c(Cl)c3)Oc3cc2cc(c3O[C@@H]2O[C@H](CO)[C@@H](O)[C@H](O)[C@H]2O[C@H]2C[C@](C)(N)[C@H](O)[C@H](C)O2)Oc2ccc(cc2Cl)[C@H]1O", "note": "[vancomycin]", "values": [{"measurement": "Lysis by", "setting": "HK mutant", "result": "tolerant"}, {"measurement": "Lysis by", "setting": "Orf W1 mutant", "result": "tolerant"}, {"measurement": "Lysis by", "setting": "RR mutant", "result": "sensitive"}, {"measurement": "tolerance (lysis and death)", "setting": "[1]", "result": "exhibited tolerance"}, {"measurement": "loss of viability", "setting": "clinical isolate A144", "result": 0.5, "unit": "logs"}, {"measurement": "lysis of F79", "setting": "clinical isolate F79", "result": "tolerant"}, {"measurement": "loss in viability (kill)", "setting": "parent strain R6", "result": 4, "unit": "log"}, {"measurement": "loss in viability", "setting": "[2]", "result": 1, "unit": "log"}, {"measurement": "kill", "setting": "vexp3 mutant", "result": "less than 2 log"}, {"measurement": "lysis of R6 under leucine deprivation", "setting": "[3]", "result": "neither the addition of 10×the MIC of penicillin or vancomycin nor the addition of 0.2 mM P27 resulted in lysis"}, {"measurement": "death in the presence of antibiotic", "setting": "mutant SPSJ01", "result": "failed to die"}]}
